In US20260364213A1, “RADIOLABELED COMPOUNDS OF TRIMETHOPRIM AND USES THEREOF” (THE TRUSTEES OF THE UNIVERSITY OF PENNSYLVANIA, priority 2023, published 2026):
Entries after “also recorded” stand apart in the source; their conditions may differ.

Experiments:
eDHFR [1] = molecular target: T1, eDHFR (Escherichia coli, UniProt P0ABQ4); conditions: eDHFR+ cells pre-incubated with 10 μM unlabeled TMP
T1 sequence (P0ABQ4 1-159): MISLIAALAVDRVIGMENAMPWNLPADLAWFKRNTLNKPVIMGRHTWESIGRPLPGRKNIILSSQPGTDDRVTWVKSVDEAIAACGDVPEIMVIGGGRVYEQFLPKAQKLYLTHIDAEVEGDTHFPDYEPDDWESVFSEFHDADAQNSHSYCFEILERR

HCT116-eDHFR tumors = assay: Ex vivo biodistribution in HCT116 tumor-bearing athymic nude mice; set-up: species or system human; conditions: 1.85 MBq i.v., 3 hours
Method: (§1) To evaluate the therapeutic potential [^131I]mI-TMP, sixteen (16) 8- to 12-week-old female athymic nude mice (Charles River Laboratories) were inoculated with 1×10^7 HCT116 tumor cells (eDHFR+ or WT) on the left shoulder. The mice were then divided into two groups: […] (8) mice with HCT116-eDHFR (eDHFR-positive cells) and Eight (8) mice with HCT116-WT (eDHFR-negative) cells.
Ex-vivo biodistribution studies were conducted on three (3) tumor-bearing mice from each group, while the remaining ten (10) mice were used to monitor tumor response to radiotherapy.
Three (3) hours post radiotracer injection mice were euthanized, and organs of interest were harvested for biodistribution quantification. Total radioactive uptake per organ, in counts per minute (CPM), was determined by γ-counter (Perkin Elmer).

I45 eDHFR-FLAG tumors [2] = assay: I45 RLT, tumor growth in CD1 nude mice; type: in vivo, human; conditions: 18.5 MBq/mouse i.v. single dose, n=7; listed as [^131I]I-TMP
Method: (§2) RLT in I45 tumors. […] Briefly, I45 eDHFR-FLAG and WT cells were xenografted into the shoulders of female athymic CD1-Foxn1nu mice. The tumors were allowed to grow for ~2 weeks. Subsequently, [^131I]I-TMP was administered intravenously and a limited biodistribution study was performed. […] To assess for cytotoxicity in I45 mesothelioma cells, I45 WT and I45 eDHFR tumors were separately xenografted into CD1-Foxn1nu mice and either [^131I]I-TMP or saline was administered to form 4 experimental cohorts (n=7).
[^131I]I-TMPI Administration, and Monitoring. Female CD1 nu/nu mice, aged six to eight weeks, underwent subcutaneous xenografting with 1×10^6 I45 WT and I45 eDHFR-Flag cells on the shoulder. The cells were suspended in a 1:1 volume ratio of 75 μL RPMI complete medium and 75 μL Matrigel Matrix (Corning, 354234). Both I45 WT and I45 eDHFR-Flag mice were randomly divided into two groups, with each group consisting of 7 mice. Tumors were grown for 2 weeks. […] [^131I]I-TMP, diluted in 100 μL saline, was injected into two groups containing I45 WT and I45 eDHFR-Flag xenografts on day 9 of initial tumor inoculation. The remaining two groups of I45 WT and I45 eDHFR-Flag xenografts were injected with saline. Tumor growth was monitored from two days before to 10 days after [^131I]I-TMP injection, with measurements taken every other day using calipers. […]

eDHFR [3] = molecular target: T1, eDHFR; assay: Uptake and washout in HCT116-eDHFR-Luc vs WT cells; type: cell-based; set-up: in CAR T cells fused to C-terminus of CD3zeta of FAP-CAR
Method: The cells were sampled at 1 h, 2 h and 4 h. […] Similarly, the process cells was repeated for 2 h and 4 h samples.
Next, the therapeutic effect of [^131/125I]mI-TMP in a human colorectal carcinoma cell line, HCT116 was analyzed. […] The specificity of radiotracer uptake was determined by blocking conditions. […] See, FIG. 10A.
A washout study was performed to know the retention of the tracer in the cells. HCT116_eDHFR cells were incubated with 0.037 MBq of compound 5b for 20 minutes. The cells were washed, resuspended and sampled at 60, 120 and 240 minutes. […] To examine the radiotherapeutic effect, the incubation period was increased and the dose […]. The cells were dosed with 3.7 MBq at 37 °C and incubated them with 2 and 4 hours. See, FIG. 10B.

eDHFR [4] = molecular target: T1, eDHFR; type: cell-based; conditions: I45 mesothelioma cells, eDHFR-FLAG vs WT; 60 min at 37 °C
Description: See, FIG. 1E. […] See, FIG. 1F.

[5] = Ex vivo biodistribution in healthy Balb/c mice; set-up: species or system mouse
Method: Given promising in vitro experimental results, a biodistribution study was conducted on healthy balb/c mice. […] Mice were then euthanized 1-hour, 4-hour, and 24-hour post radiotracer injection, and organs were harvested for bio-distribution quantification. […] Total radioactive uptake per organ, in CPM, was determined by γ-counter (Wizard Detector, Perkin Elmer). […] See, FIG. 10A-10B and FIG. 11. These tissues could be sites where eDHFR could be localized using genetic vectors to achieve a high therapeutic index.
Another ex-vivo biodistribution study was performed with potassium iodide (SSKI) administration 8-12-week-old female balb/c mice (n=9) were administered with intraperitoneal administration for thyroid protection, with a dose of 100 mg/kg potassium iodide in a volume of 100 μL/10 g given the day before treatment, 30 minutes before the radioactive [^131I]mI-TMP injection.

HCT116 tumor cells = assay: Radiotherapy of HCT116 tumor-bearing athymic nude mice; type: in vivo, human
Description: Tumor size measurements were taken using calipers from day 1 to 14 post-injection of the [^131I]mI-TMP to monitor the response of radiation therapy. […] See, FIG. 11 and FIG. 12.
as §1
Three (3) of the five (5) mice from each cohort were imaged at 3- and 24-hours post [^131I]mI-TMPI radiotherapy injection using small animal SPECT and CT instruments. Five (5) mice from each cohort (which included the 3 imaged mice from each cohort) were then monitored for 14 days using caliper measurements and IVIS imaging.

I45 eDHFR-FLAG tumors [6] = assay: Biodistribution in I45 tumor-bearing CD1 nude mice; type: in vivo, human; conditions: 24 hours
Method: as §2
(v) In vivo I45 eDHFR-FLAG Tumor Model. Female CD1 nu/nu mice, aged six to eight weeks, were subject to subcutaneous xenografting. Specifically, I45 eDHFR-Flag cells (1×10^6 cells/mouse) were suspended in a solution comprising equal volumes of 75 μL RPMI complete medium and 75 μL Matrigel Matrix (Corning, 354234) for implantation on the shoulder.

Structure (SMILES)	uptake under blocked conditions (eDHFR [1])	uptake in eDHFR tumors relative to WT tumors (HCT116-eDHFR tumors)	tumor growth / in vivo cytotoxicity, I45 eDHFR tumors (I45 eDHFR-FLAG tumors [2])	uptake of radiotracer in eDHFR+ cells in comparison to wild-type (eDHFR [3])	uptake in eDHFR+ cells compared to wild type (eDHFR [4])	stomach and liver uptake with KI pre-treatment ([5]; 0.67 MBq, 1 h)	uptake in blood, heart, lungs, brain, pancreas, bones and spleen with KI pre-treatment ([5]; 0.67 MBq, 1 h)	organ radioactivity, 24 h ([5]; 0.74 MBq i.v. tail vein, 24 h, no KI)	organ radioactivity, 1 h ([5]; 0.74 MBq i.v. tail vein, Balb/c, after 1 h time point)	uptake in heart, lungs, brain, pancreas, bones and spleen ([5]; 0.74 MBq i.v., all time points (1, 4, 24 h))	organ radioactivity with KI pre-treatment ([5]; kidney, small intestine, large intestine, 0.67 MBq, 1 h)	thyroid uptake with KI pre-treatment ([5]; potassium iodide (SSKI) 100 mg/kg, 0.67 MBq, 1 h)	tumor size, eDHFR-Luc tumors (HCT116 tumor cells; 18.5 MBq (500 μCi) i.v. tail vein, caliper, day 1 to 14)	tumor size, eDHFR-negative tumors (HCT116 tumor cells; 18.5 MBq (500 μCi) i.v., day 7 to day 14)	presence in eDHFR+ tumors (I45 eDHFR-FLAG tumors [6]; 18.5 MBq i.v.)	uptake in eDHFR tumors compared to WT tumors (I45 eDHFR-FLAG tumors [6])	washout from eDHFR tumors (I45 eDHFR-FLAG tumors [6])
COc1cc(Cc2cnc(N)nc2N)cc(I)c1OC [[^131I]mI-TMP, 5-(3-iodo-4,5-dimethoxybenzyl)pyrimidine-2,4-diamine]	reduced uptake	–	–	–	–	–	–	–	–	–	–	–	–	–	–	–	–
COc1cc(Cc2cnc(N)nc2N)cc([131I])c1OC [[^131I]mI-TMP, 5-(3-iodo-4,5-dimethoxybenzyl)pyrimidine-2,4-diamine]	–	twice as much	clear reduction in tumor growth; also recorded: shows in vivo cytotoxicity toward eDHFR-expressing I45 cells	two-fold increase in uptake	~ 80 fold	low uptake	Minimal to no uptake; also recorded: negligible uptake	increase in radioactivity in thyroid, indicating the deiodination	significant increase in the radioactivity in the kidney, small intestine, stomach, and liver	Minimal to no uptake	significant increase in the radioactivity in the kidney, small intestine and large intestine	abrogated thyroid uptake	reduction in tumor size at day 7 post-injection, which remained stable until day 10 but increased by day 14	continued to grow from day 7 to day 14	present in eDHFR+ tumors, even after 24 hours	over 1000 fold	without substantial washout
